In patent US20260035363A1, “COMPOUNDS AND METHODS OF USE THEREOF AS ANTIBACTERIAL AGENTS” (priority 2019, published 2026):
In brackets after ≈: the same amount, converted by molar mass. Like-named read-outs stand apart in the source and are kept apart here.

How the values were obtained:
Format in all cases: cell-based
[1] = system: mitochondrial protein synthesis in HepG2 cells; assay: Mitochondrial protein synthesis assay (COX-I to SDH-A ratio, In Cell ELISA); settings: Homo sapiens, HepG2, 96 h, 4 days, ratio of COX-I to SDH-A levels, read-out: MPS IC50
Protocol: Mitochondrial Protein Synthesis Assay
Inhibition of mitochondrial protein synthesis was assessed in HepG2 cells by comparing the levels of two subunits of oxidative phosphorylation enzyme complexes, subunit I of Complex IV (COX-I) and the 70 kDa subunit of Complex II (SDH-A). COX-I is mitochondrial DNA encoded and SDH-A is nuclear DNA encoded. HepG2 cells were seeded in 96-well collagen coated plates at 8,000 cells per well and exposed to 2-fold serial dilutions of compounds from 100 μM to 6.25 μM. Microtiter plates were incubated for approximately 5 replication cycles (4 days) prior to assessment of protein levels using a kit as described by the manufacturer (ab110217 MitoBiogenesis In Cell ELISA Kit, Abcam, Cambridge, MA). Inhibition of mitochondrial protein synthesis was expressed as a ratio of COX-1 to SDH-A levels.

[2] = system: Mycobacterium tuberculosis (Mtb-GFP; H37Rv pMSP12::GFP); assay: microbe, parasite or virus in culture; settings: 168 h, pH 6.8, read-out: Mtb Cho MITC95, cholesterol carbon source, pH 6.8, 7-day growth, GFP fluorescence, lowest concentration inhibiting 95% of growth
[3] = system: Mycobacterium tuberculosis (Mtb-GFP; H37Rv pMSP12::GFP); assay: microbe, parasite or virus in culture; settings: 168 h, pH 6.8, read-out: Mtb Glu MITC95, glucose carbon source, pH 6.8, 7-day growth, GFP fluorescence, lowest concentration inhibiting 95% of growth

Row | SMILES | IC50 [1] [µM] | MIC [2] [µM] | MIC [3] [µM]
1 | Cc1cn(C[C@H]2CC(c3cc(F)c(C4(F)CCS(=O)(=O)CC4)c(F)c3)=NO2)nn1 [Example 54, 4-(2,6-Difluoro-4-{(5R)-5-[(4-methyl-1H-1,2,3-triazol-1-yl)methyl]-4,5-dihydro-1,2-oxazol-3-yl}phenyl)-4-fluoro-1λ^6-thiane-1,1-dione] | 45 | 1.17 (≈ 0.501 µg/mL) | 0.78 (≈ 0.334 µg/mL)
2 | CN=S1(=O)CCN(c2c(F)cc(C3=NO[C@@H](Cn4ccnn4)C3)cc2F)CC1 [Example 31, 4-(2,6-Difluoro-4-{(5R)-5-[(1H-1,2,3-triazol-1-yl)methyl]-4,5-dihydro-l,2-oxazol-3-yl}phenyl)-1-(methylimino)-1λ^6-thiomorpholin-1-one] | > 100 | 5.47 (≈ 2.25 µg/mL) | 4.69 (≈ 1.93 µg/mL)
3 | CCC1(S(=O)(=O)c2ccc(-c3ccc(C4=NO[C@@H](Cn5ccnn5)C4)cc3F)cc2)CN(C)C1 [Example 43, 1-({(5R)-3-[4′-(3-Ethyl-1-methylazetidine-3-sulfonyl)-2-fluoro[1,1′-biphenyl]-4-yl]-4,5-dihydro-1,2-oxazol-5-yl}methyl)-1H-1,2,3-triazole] | 4.1 | 0.19 (≈ 0.0919 µg/mL) | 0.19 (≈ 0.0919 µg/mL)
4 | CN1CC(C)(S(=O)(=O)c2ccc(-c3c(F)cc(C4=NO[C@@H](Cn5ccnn5)C4)cc3F)cc2)C1 [Example 22, 1-({(5R)-3-[4′-(1,3-Dimethylazetidine-3-sulfonyl)-2,6-difluoro[1,1′-biphenyl]-4-yl]-4,5-dihydro-1,2-oxazol-5-yl}methyl)-1H-1,2,3-triazole] | 25 | 0.49 (≈ 0.239 µg/mL) | 0.29 (≈ 0.141 µg/mL)
